Reference: US8956824B2, “Methods for identifying allosteric modulators of ship polypeptides” (British Columbia Cancer Agency Branch, priority 2006, dated 2015)
Entries after “also recorded” stand apart in the source; their conditions may differ.

How the values were obtained:
LNCaP cells = assay: PKB phosphorylation in LNCaP cells; assay type: cell-based; conditions: 30 min treatment; cells do not express SHIP1
Description: The non-hemopoietic, prostate cancer LnCAP cell line was treated with AQX-016A or LY294002 for 30 min and cell lysates analyzed for phospho-PKB-Thr 308 or phospho-PKB 473 as described in the Examples. AQX-016A (Molecular Weight 328.24) concentration is indicated in μM.

PH domain deleted SHIP1 = target: T1, PH domain deleted SHIP1 (Mus musculus, UniProt Q9ES52, DEL292-400/E403A/P402A/Q401A); assay: Scintillation proximity assay, PH domain deleted SHIP1; assay type: binding
T1 construct: Full length, wild-type SHIP1 enzyme (wt) or SHIP1 enzyme in which the PH or C2 domains were deleted; His6 (N); made in house; 293T cells are stated only for the wild-type enzyme
T1 sequence (Q9ES52 with tags, fused parts or gaps DEL292-400/Q401A/P402A/E403A): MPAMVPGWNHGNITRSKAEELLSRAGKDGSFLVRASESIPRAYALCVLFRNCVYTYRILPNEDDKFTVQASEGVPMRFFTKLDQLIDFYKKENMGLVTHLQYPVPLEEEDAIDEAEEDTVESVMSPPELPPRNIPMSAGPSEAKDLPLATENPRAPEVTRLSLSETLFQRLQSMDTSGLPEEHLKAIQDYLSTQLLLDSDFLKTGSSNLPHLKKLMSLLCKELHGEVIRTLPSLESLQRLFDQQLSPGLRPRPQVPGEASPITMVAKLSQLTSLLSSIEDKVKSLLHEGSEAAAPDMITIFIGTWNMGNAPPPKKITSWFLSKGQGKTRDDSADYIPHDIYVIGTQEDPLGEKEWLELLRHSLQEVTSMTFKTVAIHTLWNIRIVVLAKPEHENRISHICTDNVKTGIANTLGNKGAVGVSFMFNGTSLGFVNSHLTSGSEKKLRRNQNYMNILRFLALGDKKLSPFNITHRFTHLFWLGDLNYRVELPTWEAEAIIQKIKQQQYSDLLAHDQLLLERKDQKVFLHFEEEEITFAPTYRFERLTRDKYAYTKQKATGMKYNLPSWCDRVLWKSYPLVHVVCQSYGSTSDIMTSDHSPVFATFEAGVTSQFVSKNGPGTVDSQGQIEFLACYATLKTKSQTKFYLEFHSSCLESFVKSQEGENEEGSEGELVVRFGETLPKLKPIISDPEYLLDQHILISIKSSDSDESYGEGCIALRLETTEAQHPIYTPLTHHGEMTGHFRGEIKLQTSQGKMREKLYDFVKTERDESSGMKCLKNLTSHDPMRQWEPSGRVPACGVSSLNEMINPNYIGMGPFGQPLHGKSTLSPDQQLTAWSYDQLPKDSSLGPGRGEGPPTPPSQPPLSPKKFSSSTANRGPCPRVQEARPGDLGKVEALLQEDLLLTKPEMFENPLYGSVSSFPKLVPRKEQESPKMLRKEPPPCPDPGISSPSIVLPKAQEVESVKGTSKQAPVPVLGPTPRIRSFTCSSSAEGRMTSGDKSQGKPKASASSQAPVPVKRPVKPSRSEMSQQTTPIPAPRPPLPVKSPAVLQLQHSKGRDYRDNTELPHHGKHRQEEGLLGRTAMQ

SHIP1 C2 domain = target: T2, SHIP1 C2 domain (Mus musculus, UniProt Q9ES52); assay: Scintillation proximity assay, C2 domain; assay type: binding; conditions: C2 domain 10 nM, 5 μCi
T2 construct: Recombinant SHIP1 C2 domain (amino acid residues 725 to 863); made in house; host or cells: E. coli, pET28C
T2 sequence (Q9ES52 725-863): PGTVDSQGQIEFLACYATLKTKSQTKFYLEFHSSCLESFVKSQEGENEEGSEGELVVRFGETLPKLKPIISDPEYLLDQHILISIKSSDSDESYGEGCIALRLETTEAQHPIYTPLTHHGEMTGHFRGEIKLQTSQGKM
Description: Scintillation Proximity Assays AQX-MN100 was radiolabeled with tritium by GE Healthcare (Piscataway, N.J.) to a specific activity of 42 Ci/mmole. Copper chelate (His-Tag) YSi YSi SPA Scintillation Beads (GE Healthcare ,Piscataway, NJ) were diluted in 0.25% BSA/TBS to 1.5 mg/mL and recombinant, His6-tagged protein added at the indicated concentrations: wild-type (1 pM), ΔC2 SHIP enzyme (1 pM) or C2 domain (10 nM). Protein was allowed to bind 1 h at 23° C., and 250 μg of beads were aliquoted per well of a 96-well plate. 5 μCi of [3H]-AQX-MN100 was added per well, the plate gently agitated for 30 min and the amount of bead associated radioactivity quantified by counting in a Wallac BETAPLATE™ plate scintillation counter. Results are representative of 3 independent experiments.

SMILES | PKB phosphorylation in LNCaP cells (LNCaP cells) | binding of [3H]-AQX-MN100 to SHIP1 with PH domain deleted (PH domain deleted SHIP1) | binding of [3H]-AQX-MN100 to recombinant C2 domain (SHIP1 C2 domain)
Cc1cc(O)c(O)c2c1[C@]1(C)CC[C@H]3C(C)(C)CCC[C@]3(C)[C@H]1C2 [AQX-016A] | had no effect; also recorded: but not AQX-016A inhibits PKB phosphorylation |  | 
Cc1cc(O)cc2c1[C@]1(C)CC[C@H]3C(C)(C)CCC[C@]3(C)[C@H]1C2 [AQX-MN100] |  | attenuates the ability of SHIP1 to bind | could directly bind; also recorded: reproducibly observed to bound; also recorded: binds
